Measurements: patent US7138361B2, “Herbicidal heterocycles” (E. I. du Pont de Nemours and Company, priority 2000, dated 2006)

Key:
Format in all cases: in vivo
[1] = test system: smallflower flatsedge (Cyperus difformis); assay: Test C flooded paddy test; settings: for Flatsedge plant response rating: Flooded Paddy, scale 0 to 100, 0 no effect, 100 complete control; for Plant response rating, Flatsedge: flooded paddy test, scale 0 to 100 (0 no effect, 100 complete control)
In short: (§1)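 Greenhouse-maintained for 12 to 14 days after treatment, the paddy plants (2-leaf stage at application) were scored visually against controls. A score of 0 denotes no effect and a score of 100 denotes complete control.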

[2] = test system: duck salad (Heteranthera limosa); assay: Test C flooded paddy test; settings: for Ducksalad plant response rating: Flooded Paddy, scale 0 to 100, 0 no effect, 100 complete control; for Plant response rating, Ducksalad: flooded paddy test, scale 0 to 100 (0 no effect, 100 complete control)
In short: as §1

rice (Oryza saliva) = assay: Test C flooded paddy test; settings: for Rice plant response rating: Flooded Paddy, scale 0 to 100, 0 no effect, 100 complete control; for Plant response rating, Rice: flooded paddy test, scale 0 to 100 (0 no effect, 100 complete control)
In short: as §1

[3] = test system: barnyardgrass (Echinochloa crus-galli); assay: Test C flooded paddy test; settings: for Barnyardgrass plant response rating: Flooded Paddy, scale 0 to 100, 0 no effect, 100 complete control; for Plant response rating, Barnyardgrass: flooded paddy test, scale 0 to 100 (0 no effect, 100 complete control)
In short: as §1

Sunflower = assay: Test C preemergence; settings: scale 0 to 100
[4] = test system: lambsquarters (Chenopodium album); assay: Test B postemergence; settings: 13 to 15 days
In short: (§2)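 Ratings on a 0 to 100 visual scale (100 complete control) compare treated plants with controls 13 to 15 days after application. Treatments were pre- or postemergence sprays of compound in non-phytotoxic solvent with surfactant.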

[5] = test system: blackgrass (Alopecurus myosuroides); assay: Test B postemergence; settings: 13 to 15 days
In short: as §2

[6] = Rate 125 g/ha, scale 0 (no effect) to 100 (complete control)
[7] = Rate 500 g/ha, scale 0 to 100, 0 is no effect, 100 is complete control

Compound: CC(C)Oc1cccc(N2CCC(n3ccc(C(C)(C)C)n3)C2=O)c1 (centres unmarked) [Compound 70]
- Flatsedge plant response rating ([1]; Rate 250 g/ha): 90
- Flatsedge plant response rating ([1]; Rate 500 g/ha): 90
- Plant response rating, Flatsedge ([1]; Rate 62 g/ha): 90
- Ducksalad plant response rating ([2]; Rate 250 g/ha): 100
- Ducksalad plant response rating ([2]; Rate 500 g/ha): 100
- Plant response rating, Ducksalad ([2]; Rate 62 g/ha): 100
- Rice plant response rating (rice (Oryza saliva); Rate 250 g/ha): 60
- Rice plant response rating (rice (Oryza saliva); Rate 500 g/ha): 90
- Plant response rating, Rice (rice (Oryza saliva); Rate 62 g/ha): 20
- Barnyardgrass plant response rating ([3]; Rate 250 g/ha): 100
- Barnyardgrass plant response rating ([3]; Rate 500 g/ha): 100
- Plant response rating, Barnyardgrass ([3]; Rate 62 g/ha): 60
- Plant response rating, Sunflower (Sunflower; Rate 31 g/ha): 0
- Plant response rating, Lambsquarters [4, 6]: 0
- Plant response rating, Lambsquarters [4, 7]: 0
- Plant response rating, Blackgrass [5, 6]: 0
- Plant response rating, Blackgrass [5, 7]: 0

Compound: COC(=O)c1cccc(N2CCC(n3ccc(C(C)(C)C)n3)C2=O)c1 (centres unmarked) [Compound 73]
- Flatsedge plant response rating ([1]; Rate 250 g/ha): 100
- Flatsedge plant response rating ([1]; Rate 500 g/ha): 100
- Plant response rating, Flatsedge ([1]; Rate 62 g/ha): 90
- Plant response rating, Flatsedge ([1]; Rate 125 g/ha): 100
- Ducksalad plant response rating ([2]; Rate 250 g/ha): 100
- Ducksalad plant response rating ([2]; Rate 500 g/ha): 100
- Plant response rating, Ducksalad ([2]; Rate 62 g/ha): 70
- Plant response rating, Ducksalad ([2]; Rate 125 g/ha): 90
- Rice plant response rating (rice (Oryza saliva); Rate 250 g/ha): 50
- Rice plant response rating (rice (Oryza saliva); Rate 500 g/ha): 60
- Plant response rating, Rice (rice (Oryza saliva); Rate 62 g/ha): 0
- Plant response rating, Rice (rice (Oryza saliva); Rate 125 g/ha): 20
- Barnyardgrass plant response rating ([3]; Rate 250 g/ha): 100
- Barnyardgrass plant response rating ([3]; Rate 500 g/ha): 100
- Plant response rating, Barnyardgrass ([3]; Rate 62 g/ha): 30
- Plant response rating, Barnyardgrass ([3]; Rate 125 g/ha): 70
- Plant response rating, Sunflower (Sunflower; Rate 31 g/ha): 40
- Plant response rating, Lambsquarters [4, 6]: 0
- Plant response rating, Lambsquarters [4, 7]: 70
- Plant response rating, Blackgrass [5, 6]: 0
- Plant response rating, Blackgrass [5, 7]: 0

Compound: CCC(CC)c1ccn(C2CCN(c3cccc(OC(C)C)c3)C2=O)n1 (centres unmarked) [Compound 84]
- Flatsedge plant response rating ([1]; Rate 250 g/ha): 100
- Flatsedge plant response rating ([1]; Rate 500 g/ha): 100
- Plant response rating, Flatsedge ([1]; Rate 62 g/ha): 90
- Plant response rating, Flatsedge ([1]; Rate 125 g/ha): 90
- Ducksalad plant response rating ([2]; Rate 250 g/ha): 100
- Ducksalad plant response rating ([2]; Rate 500 g/ha): 100
- Plant response rating, Ducksalad ([2]; Rate 62 g/ha): 90
- Plant response rating, Ducksalad ([2]; Rate 125 g/ha): 90
- Rice plant response rating (rice (Oryza saliva); Rate 250 g/ha): 30
- Rice plant response rating (rice (Oryza saliva); Rate 500 g/ha): 90
- Plant response rating, Rice (rice (Oryza saliva); Rate 62 g/ha): 0
- Plant response rating, Rice (rice (Oryza saliva); Rate 125 g/ha): 0
- Barnyardgrass plant response rating ([3]; Rate 250 g/ha): 100
- Barnyardgrass plant response rating ([3]; Rate 500 g/ha): 100
- Plant response rating, Barnyardgrass ([3]; Rate 62 g/ha): 80
- Plant response rating, Sunflower (Sunflower; Rate 62 g/ha): 0
- Plant response rating, Lambsquarters [4, 6]: 50
- Plant response rating, Lambsquarters [4, 7]: 60
- Plant response rating, Blackgrass [5, 6]: 0
- Plant response rating, Blackgrass [5, 7]: 0

Compound: CSc1cccc(N2CCC(n3ccc(C(C)(C)C)n3)C2=O)c1 (centres unmarked) [Compound 86]
- Flatsedge plant response rating ([1]; Rate 250 g/ha): 70
- Plant response rating, Flatsedge ([1]; Rate 62 g/ha): 0
- Plant response rating, Flatsedge ([1]; Rate 125 g/ha): 0
- Ducksalad plant response rating ([2]; Rate 250 g/ha): 100
- Plant response rating, Ducksalad ([2]; Rate 62 g/ha): 0
- Plant response rating, Ducksalad ([2]; Rate 125 g/ha): 0
- Rice plant response rating (rice (Oryza saliva); Rate 250 g/ha): 0
- Rice plant response rating (rice (Oryza saliva); Rate 500 g/ha): 20
- Plant response rating, Rice (rice (Oryza saliva); Rate 62 g/ha): 0
- Plant response rating, Rice (rice (Oryza saliva); Rate 125 g/ha): 0
- Barnyardgrass plant response rating ([3]; Rate 250 g/ha): 100
- Barnyardgrass plant response rating ([3]; Rate 500 g/ha): 100
- Plant response rating, Barnyardgrass ([3]; Rate 62 g/ha): 0
- Plant response rating, Barnyardgrass ([3]; Rate 125 g/ha): 30
- Plant response rating, Sunflower (Sunflower; Rate 62 g/ha): 0
- Plant response rating, Lambsquarters [4, 6]: 0
- Plant response rating, Lambsquarters [4, 7]: 50
- Plant response rating, Blackgrass [5, 6]: 0
- Plant response rating, Blackgrass [5, 7]: 0

Compound: COc1cccc(N2CCC(n3ccc(C(C)(C)C)n3)C2=O)c1 (centres unmarked) [Compound 87]
- Flatsedge plant response rating ([1]; Rate 250 g/ha): 100
- Flatsedge plant response rating ([1]; Rate 500 g/ha): 100
- Plant response rating, Flatsedge ([1]; Rate 62 g/ha): 0
- Plant response rating, Flatsedge ([1]; Rate 125 g/ha): 100
- Ducksalad plant response rating ([2]; Rate 250 g/ha): 50
- Ducksalad plant response rating ([2]; Rate 500 g/ha): 100
- Plant response rating, Ducksalad ([2]; Rate 62 g/ha): 0
- Plant response rating, Ducksalad ([2]; Rate 125 g/ha): 50
- Rice plant response rating (rice (Oryza saliva); Rate 250 g/ha): 20
- Rice plant response rating (rice (Oryza saliva); Rate 500 g/ha): 80
- Plant response rating, Rice (rice (Oryza saliva); Rate 62 g/ha): 0
- Plant response rating, Rice (rice (Oryza saliva); Rate 125 g/ha): 20
- Barnyardgrass plant response rating ([3]; Rate 250 g/ha): 70
- Barnyardgrass plant response rating ([3]; Rate 500 g/ha): 100
- Plant response rating, Barnyardgrass ([3]; Rate 62 g/ha): 0
- Plant response rating, Barnyardgrass ([3]; Rate 125 g/ha): 70
- Plant response rating, Sunflower (Sunflower; Rate 62 g/ha): 20
- Plant response rating, Lambsquarters [4, 6]: 0
- Plant response rating, Lambsquarters [4, 7]: 50
- Plant response rating, Blackgrass [5, 6]: 0
- Plant response rating, Blackgrass [5, 7]: 0

Compound: CCCC(C)c1ccn(C2OCN(c3cccc(C(F)(F)F)c3)C2=O)n1 (centres unmarked) [Compound 89]
- Flatsedge plant response rating ([1]; Rate 250 g/ha): 90
- Flatsedge plant response rating ([1]; Rate 500 g/ha): 100
- Plant response rating, Flatsedge ([1]; Rate 62 g/ha): 80
- Plant response rating, Flatsedge ([1]; Rate 125 g/ha): 90
- Ducksalad plant response rating ([2]; Rate 250 g/ha): 40
- Ducksalad plant response rating ([2]; Rate 500 g/ha): 90
- Plant response rating, Ducksalad ([2]; Rate 62 g/ha): 0
- Plant response rating, Ducksalad ([2]; Rate 125 g/ha): 0
- Rice plant response rating (rice (Oryza saliva); Rate 250 g/ha): 20
- Rice plant response rating (rice (Oryza saliva); Rate 500 g/ha): 40
- Plant response rating, Rice (rice (Oryza saliva); Rate 62 g/ha): 0
- Plant response rating, Rice (rice (Oryza saliva); Rate 125 g/ha): 0
- Barnyardgrass plant response rating ([3]; Rate 250 g/ha): 100
- Barnyardgrass plant response rating ([3]; Rate 500 g/ha): 100
- Plant response rating, Barnyardgrass ([3]; Rate 62 g/ha): 20
- Plant response rating, Barnyardgrass ([3]; Rate 125 g/ha): 70
- Plant response rating, Sunflower (Sunflower; Rate 62 g/ha): 0
- Plant response rating, Lambsquarters [4, 7]: 100
- Plant response rating, Blackgrass [5, 6]: 0
- Plant response rating, Blackgrass [5, 7]: 0

Compound: CCCC(C)c1ccn(C2SCN(c3cccc(OC(F)(F)F)c3)C2=O)n1 (centres unmarked) [Compound 90]
- Flatsedge plant response rating ([1]; Rate 250 g/ha): 100
- Flatsedge plant response rating ([1]; Rate 500 g/ha): 100
- Plant response rating, Flatsedge ([1]; Rate 62 g/ha): 100
- Plant response rating, Flatsedge ([1]; Rate 125 g/ha): 100
- Ducksalad plant response rating ([2]; Rate 250 g/ha): 90
- Ducksalad plant response rating ([2]; Rate 500 g/ha): 90
- Plant response rating, Ducksalad ([2]; Rate 62 g/ha): 80
- Rice plant response rating (rice (Oryza saliva); Rate 250 g/ha): 0
- Rice plant response rating (rice (Oryza saliva); Rate 500 g/ha): 20
- Plant response rating, Rice (rice (Oryza saliva); Rate 62 g/ha): 0
- Plant response rating, Rice (rice (Oryza saliva); Rate 125 g/ha): 0
- Barnyardgrass plant response rating ([3]; Rate 250 g/ha): 90
- Barnyardgrass plant response rating ([3]; Rate 500 g/ha): 100
- Plant response rating, Barnyardgrass ([3]; Rate 62 g/ha): 30
- Plant response rating, Barnyardgrass ([3]; Rate 125 g/ha): 60
- Plant response rating, Sunflower (Sunflower; Rate 31 g/ha): 0
- Plant response rating, Sunflower (Sunflower; Rate 62 g/ha): 0
- Plant response rating, Lambsquarters [4, 7]: 100
- Plant response rating, Blackgrass [5, 6]: 0
- Plant response rating, Blackgrass [5, 7]: 0

Compound: CCCC(C)c1ccn(C2SCN(c3cccc(C(F)(F)F)c3)C2=O)n1 (centres unmarked) [Compound 92]
- Flatsedge plant response rating ([1]; Rate 250 g/ha): 100
- Flatsedge plant response rating ([1]; Rate 500 g/ha): 100
- Plant response rating, Flatsedge ([1]; Rate 62 g/ha): 90
- Plant response rating, Flatsedge ([1]; Rate 125 g/ha): 100
- Ducksalad plant response rating ([2]; Rate 250 g/ha): 100
- Ducksalad plant response rating ([2]; Rate 500 g/ha): 100
- Plant response rating, Ducksalad ([2]; Rate 62 g/ha): 80
- Plant response rating, Ducksalad ([2]; Rate 125 g/ha): 100
- Rice plant response rating (rice (Oryza saliva); Rate 250 g/ha): 30
- Rice plant response rating (rice (Oryza saliva); Rate 500 g/ha): 30
- Plant response rating, Rice (rice (Oryza saliva); Rate 62 g/ha): 0
- Plant response rating, Rice (rice (Oryza saliva); Rate 125 g/ha): 0
- Barnyardgrass plant response rating ([3]; Rate 250 g/ha): 100
- Barnyardgrass plant response rating ([3]; Rate 500 g/ha): 100
- Plant response rating, Barnyardgrass ([3]; Rate 62 g/ha): 50
- Plant response rating, Barnyardgrass ([3]; Rate 125 g/ha): 100
- Plant response rating, Sunflower (Sunflower; Rate 62 g/ha): 0
- Plant response rating, Lambsquarters [4, 7]: 90
- Plant response rating, Blackgrass [5, 6]: 0
- Plant response rating, Blackgrass [5, 7]: 0
